Assay results: patent US20260199377A1, “CANNABINOIDS FOR TREATING ESSENTIAL TREMOR IN PATIENTS” (Jazz Pharmaceuticals Research UK Limited, priority 2022, published 2026)
Structures can show the parent of a compound that is named as a salt.

How the values were obtained:
[1] = system: Harmaline-Induced Essential Tremor in Rats; assay: Harmaline-induced essential tremor in rats (observational score, Tremor Monitor waveforms); type: in vivo, rats (male; Sprague Dawley); conditions: for tremor, as indexed by OS, TI, and MPP: overall conclusion, propranolol 20 mg/kg
Method: Subjects: Naïve rats (114; male; Sprague Dawley; aged 6-9 weeks; weight 190-369 g) were obtained from Charles River UK and acclimated to the testing room in home cages (standard caging; housed in groups of 4) up to 7 days following arrival at the test facility, with free access to food (Certified Rodent CR 14% Protein Rodent Diet, LabDiet® 5CR4) and water on a 12 h/12 h light/dark cycle from arrival (lights on at 7:00 AM). All subjects were weighed at the beginning of the study and assigned to treatment groups.
Tremor Monitor™ (“TM”): A TM from San Diego Instruments was obtained to measure movement waveforms (i.e., amplitude (“A”) (dBV) as a function of frequency (“f”) (Hz)) (threshold 10 dBV).
NBX/Harmaline Experimental Group (number of subjects (“n”)=36 (12 at each dose of NBX)): Subjects were habituated to the TM for 2×5 minutes (with a 20 minute gap between the two 5 minute periods). The next day, 5.2, 10.4, or 20.8 mg/kg (total THC and CBD) NBX was administered p.o. (oral gavage) in sesame oil to the subjects at 2 mL/kg. 100 minutes after the NBX was administered, 10 mg/kg of harmaline was administered i.p. in water to the subjects at 5 mL/kg. 20, 40, and 60 minutes after the harmaline was administered to the subjects, the subjects were observationally scored in their home cages on a scale from 0 to 4 (wherein scores (“observational scores” (“OS”)) of 0, 1, 2, 3, and 4 correspond, as summarized in TABLE A below, to “No tremor”, “Occasional tremor affecting only head and neck”, “Intermittent tremor affecting whole body”, “Persistent tremor affecting whole body and tail”, and “Severe tremor rendering subject unable to stand”, respectively) and, immediately thereafter, movement waveforms of the subjects were measured with the TM for 5 minutes each.
Thereafter, the administration of the harmaline and NBX (“acute treatment”) was continued once per day until the harmaline and NBX had been administered for 10 days (“sub-chronic treatment”). 20, 40, and 60 minutes after the final administration of the NBX and harmaline, the subjects were again observationally scored on the scale described (and summarized in TABLE A) above and movement waveforms of the subjects were again measured with the TM for 5 minutes each.
Propranolol/Harmaline Comparison Group (n=12): The Experimental Group protocol was repeated, except for administering, instead of NBX, 20 mg/kg of propranolol i.p. 30 minutes before the harmaline was administered (as the maximum effect of propranolol can be observed approximately 30 minutes after administration).
Vehicle/Harmaline Control Group (n=12): The Experimental Group protocol was repeated, except for administering, instead of NBX, sesame oil (vehicle) at 2 mL/kg.
Calculations and Statistical Analysis: For each movement waveform measured, the following values were calculated: average amplitude (“A”) (average power) for the range of frequency (“f”) from
Tremor Index (“TI”=AP2−AP1); and Motion Power Percentage (“MPP” (%)=AP2/(AP1+AP2)×100). Further, for each subject, the following values were calculated: total number of tremor events (10 dBV threshold; sum of 20-, 40-, and 60-minute data); total average length of one tremor event (average of 20-, 40-, and 60-minute data); and total cumulative time of tremor events (sum of 20-, 40-, and 60-minute data), wherein “total” refers to combination of the 20-minute data, the 40-minute data, and the 60-minute data (e.g., “total cumulative time of tremor events” means total of the cumulative time of tremor events for the 20-minute data, the cumulative time of tremor events for the 40-minute data, and the cumulative time of tremor events for the 60-minute data). For the 20-, 40-, and 60-minute data independently, OS, MPP, and TI were analyzed by Kruskal-Wallis followed by Dunn's multiple comparison test. […]

rats = assay: Propranolol/Vehicle and NBX/Vehicle control groups (saline instead of harmaline), tremor measures; type: in vivo, rats (male; Sprague Dawley); conditions: vs Vehicle/Vehicle group; for Tremor Index (TI) / observational score (OS): propranolol 20 mg/kg i.p. or NBX 5.2, 10.4, 20.8 mg/kg p.o.; for Motion Power Percentage (MPP): except for NBX at 20.8 mg/kg total THC and CBD at the 20 minute timepoint
Method: Propranolol/Vehicle Control Group (n=12): The Propranolol/Harmaline Comparison Group protocol was repeated, except for administering, instead of harmaline, saline (vehicle) at 5 mL/kg.
Vehicle/Vehicle Control Group (n=6): The Experimental Group protocol was repeated, except for administering, instead of NBX, sesame oil (vehicle) at 2 mL/kg, and, instead of harmaline, saline (vehicle) at 5 mL/kg.
NBX/Vehicle Control Group (n=36 (12 at each dose)): The Experimental Group protocol was repeated, except for administering, instead of harmaline, saline (vehicle) at 5 mL/kg.
Tremor Index (“TI”=AP2−AP1); and Motion Power Percentage (“MPP” (%)=AP2/(AP1+AP2)×100). Further, for each subject, the following values were calculated: total number of tremor events (10 dBV threshold; sum of 20-, 40-, and 60-minute data); total average length of one tremor event (average of 20-, 40-, and 60-minute data); and total cumulative time of tremor events (sum of 20-, 40-, and 60-minute data), wherein “total” refers to combination of the 20-minute data, the 40-minute data, and the 60-minute data (e.g., “total cumulative time of tremor events” means total of the cumulative time of tremor events for the 20-minute data, the cumulative time of tremor events for the 40-minute data, and the cumulative time of tremor events for the 60-minute data). For the 20-, 40-, and 60-minute data independently, OS, MPP, and TI were analyzed by Kruskal-Wallis followed by Dunn's multiple comparison test. For the 20-, 40-, and 60-minuted data combined, the total number of tremor events, total average length (duration) of one tremor event, and total cumulative time spent in tremor were analyzed by Kruskal-Wallis followed by a Tukey's multiple comparison test. Results were considered significant for p<0.05. Outlier removal was not applied due to non-responders in the harmaline group which could not be identified in the treatment groups.

[2] = acute treatment, propranolol 20 mg/kg i.p., harmaline 10 mg/kg i.p., all timepoints (20, 40, 60 min), vs Vehicle/Harmaline group
[3] = sub-chronic treatment (10 days), propranolol 20 mg/kg i.p., harmaline 10 mg/kg i.p., all timepoints, vs Vehicle/Harmaline group
[4] = sub-chronic treatment, propranolol 20 mg/kg i.p., harmaline 10 mg/kg i.p., vs Vehicle/Harmaline group
[5] = harmaline 10 mg/kg i.p., acute treatment, all timepoints, Vehicle/Harmaline vs Vehicle/Vehicle group
[6] = harmaline 10 mg/kg i.p., acute treatment, sum of 20-, 40-, 60-minute data, Vehicle/Harmaline vs Vehicle/Vehicle group
[7] = harmaline 10 mg/kg i.p., sub-chronic treatment, all timepoints, Vehicle/Harmaline vs Vehicle/Vehicle group
[8] = harmaline 10 mg/kg i.p., sub-chronic treatment, sum of 20-, 40-, 60-minute data, Vehicle/Harmaline vs Vehicle/Vehicle group

CC(C)NCC(O)COc1cccc2ccccc12 (stereo not drawn) [propranolol, Propranolol hydrochloride]
observational score (OS) ([1]; acute treatment, propranolol 20 mg/kg i.p. 30 min before harmaline 10 mg/kg i.p., 20, 40 and 60 min post-dose, vs Vehicle/Harmaline group): significantly decreased
Motion Power Percentage (MPP) [1, 2]: significantly decreased
Tremor Index (TI) [1, 2]: significantly decreased
total number of tremor events ([1]; acute treatment, propranolol 20 mg/kg i.p., harmaline 10 mg/kg i.p., vs Vehicle/Harmaline group, the only one of the three event measures significantly reduced): significantly reduced
tremor, as indexed by OS, TI, and MPP ([1]; acutely): significantly reduced
tremor, as indexed by OS, TI, and MPP ([1]; sub-chronically): significantly reduced
Motion Power Percentage (MPP) [1, 3]: significantly decreased
Tremor Index (TI) [1, 3]: significantly decreased
observational score (OS) ([1]; sub-chronic treatment (once daily, 10 days), propranolol 20 mg/kg i.p., harmaline 10 mg/kg i.p., 20, 40 and 60 min, vs Vehicle/Harmaline group): significantly decreased
total average length of one tremor event [1, 4]: significantly reduced
total cumulative time of tremor events [1, 4]: significantly reduced
total number of tremor events [1, 4]: significantly reduced
Tremor Index (TI) (rats; acute treatment): no significant effect
observational score (OS) (rats; acute treatment): no significant effect
Motion Power Percentage (MPP) (rats; acute treatment): no significant effect
Tremor Index (TI) (rats; sub-chronic treatment): no significant effect
observational score (OS) (rats; sub-chronic treatment): no significant effect
Motion Power Percentage (MPP) (rats; sub-chronic treatment): no significant effect

COc1ccc2c3c([nH]c2c1)C(C)=NCC3 [harmaline, Harmaline]
observational score (OS) ([1]; harmaline 10 mg/kg i.p., acute treatment, 20, 40 and 60 min post-dose, Vehicle/Harmaline vs Vehicle/Vehicle group): significantly increased
Motion Power Percentage (MPP) [1, 5]: significantly increased
Tremor Index (TI) [1, 5]: significantly increased
total average length of one tremor event ([1]; harmaline 10 mg/kg i.p., acute treatment, average of 20-, 40-, 60-minute data, Vehicle/Harmaline vs Vehicle/Vehicle group): significantly increased
total cumulative time of tremor events [1, 6]: significantly increased
total number of tremor events [1, 6]: significantly increased
observational score (OS) ([1]; harmaline 10 mg/kg i.p., sub-chronic treatment, 20, 40 and 60 min post-dose, Vehicle/Harmaline vs Vehicle/Vehicle group): significantly increased
Motion Power Percentage (MPP) [1, 7]: significantly increased
Tremor Index (TI) [1, 7]: significantly increased
total average length of one tremor event ([1]; harmaline 10 mg/kg i.p., sub-chronic treatment, average of 20-, 40-, 60-minute data, Vehicle/Harmaline vs Vehicle/Vehicle group): significantly increased
total cumulative time of tremor events [1, 8]: significantly increased
total number of tremor events [1, 8]: significantly increased
